One series has as its target T1, IDH2-R140Q (Homo sapiens, UniProt P48735, R140Q).
T1 construct: expressed in transfected cells
T1 sequence (P48735 40-452 R140Q): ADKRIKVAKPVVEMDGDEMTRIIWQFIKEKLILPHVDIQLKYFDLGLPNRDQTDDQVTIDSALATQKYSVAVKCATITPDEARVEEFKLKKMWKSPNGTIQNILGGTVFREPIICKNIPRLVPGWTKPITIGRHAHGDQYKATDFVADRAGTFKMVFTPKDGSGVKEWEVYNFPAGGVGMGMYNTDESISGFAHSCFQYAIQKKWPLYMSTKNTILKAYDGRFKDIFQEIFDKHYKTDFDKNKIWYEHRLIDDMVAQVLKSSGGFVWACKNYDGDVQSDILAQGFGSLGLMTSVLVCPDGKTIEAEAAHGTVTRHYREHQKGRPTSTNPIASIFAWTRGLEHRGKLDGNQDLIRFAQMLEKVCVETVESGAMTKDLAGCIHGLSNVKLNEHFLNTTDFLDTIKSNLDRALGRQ
Briefly: Fluorescent determination of IDH2-R140Q cell activity (2-HG in U87MGR140Q cells). It is filed as cell-based. The following applies: 72 hours incubation, read-out: IC50 (2-HG inhibition).

The target in a further series is T2, IDH1-R132H (Homo sapiens, UniProt O75874, R132H).
T2 construct: expressed in transfected cells; host or cells: U87MG cells (U87MGR132H)
T2 sequence (O75874 whole entry R132H): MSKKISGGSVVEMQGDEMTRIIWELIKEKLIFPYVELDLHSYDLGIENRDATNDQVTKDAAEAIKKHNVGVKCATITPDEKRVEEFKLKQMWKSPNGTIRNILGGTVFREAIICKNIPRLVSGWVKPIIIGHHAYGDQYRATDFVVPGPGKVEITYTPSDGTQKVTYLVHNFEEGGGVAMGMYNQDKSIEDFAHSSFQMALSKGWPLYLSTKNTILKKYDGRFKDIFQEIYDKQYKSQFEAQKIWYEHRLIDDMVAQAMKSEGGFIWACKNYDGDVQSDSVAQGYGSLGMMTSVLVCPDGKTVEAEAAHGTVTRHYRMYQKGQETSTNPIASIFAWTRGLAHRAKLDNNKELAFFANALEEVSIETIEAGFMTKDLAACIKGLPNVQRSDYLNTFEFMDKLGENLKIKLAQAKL
The experiment in a line: Fluorescent determination of IDH1-R132H cell activity (2-HG in U87MGR132H cells). It is filed as cell-based. The following applies: 2-HG inhibition in U87MGR132H cells transfected with IDH1-R132H mutant plasmid.

Series [1] in a line: Metabolic stability test in liver microsomes (rat). It is filed as in vitro ADME. Conditions: percentage of remaining compound after incubation for 30 minutes vs 0 minute; 1 μM compound; 0.5 mg/mL liver microsomes; 37° C. The method, then: (§1) Male CD1 mouse liver microsomes was supplied by Research Institute for Liver Diseases (Shanghai) Co., Ltd. Male SD rat liver microsomes was supplied by BioreclamationIVT in US.
(§2) Phenacetin, glucose-6-phosphate (G-6-P), glucose-6-phosphate dehydrogenase (G-6-PD), and nicotinamide adenine dinucleotide phosphate (NADP) were supplied by Sigma-Aldrich (Missouri, USA).
(§3) 10 mM stock solution of test compound: Certain amount of test compound was weighed and dissolved in certain volume of dimethylsulfoxide (DMSO) to get the stock solution of test compound at 10 mM.
(§4) Reaction termination solution: Certain amount of phenacetin as internal standard was weighed and dissolved in acetonitrile to get the reaction termination solution at 1000 ng/mL, and stored at room temperature for use.
(§5) The stock solution of test compound was diluted to the designated concentration with organic solution (usually the mixtures of acetonitrile, methanol and water with different portions depending on the compound solution) to make the final concentration to be 1 μM and the contents of organic solvents no more than 1% (For DMSO, the controlled margin was 0.1%) in the final incubation system. 100 mM NADP, 500 mM G-6-P and 100 U/mL G-6-PDH were mixed and diluted with ultrapure water to provide the NADPH regenerating system containing 1 mM NADP, 5 mM G-6-P and 1 U/mL G-6-PD, which was pre-incubated at 37° C. water-bath for 10 min and then cooled on ice until being added into the reaction system. 20 mg/mL liver microsomes was mixed with 200 mM PBS and diluted with ultrapure water to make the concentrations of liver microsomes and PBS to be 0.5 mg/mL and 50 mM in the final incubation system, respectively. After the diluted liver microsomes was mixed with the NADPH regenerating solution, certain volumes of 100 mM EDTA and 300 mM MgCl2 (concentration of EDTA and MgCl2 in the final incubation system is 1 mM and 3 mM, respectively) were added, and the incubation system was put into 37° C. water bath. The incubation was commenced by adding the stock solution of test compound and maintained for 30 min. The incubation was terminated by adding the reaction termination solution. The 0 min sample was prepared by adding the reaction termination solution to the incubation system immediately prior to putting the system into the water bath with the addition of the stock solution of test compound. The terminated incubation mixtures were vortexed and centrifuged at 4400 rpm for 10 min, and the supernatant was collected for LC-MS/MS analysis.
(§6) The concentration of test compound was determined using LC-MS/MS method. Using the peak area ratio of the compound and the internal standard as an index, the percentage of remaining compound after incubation for 30 minutes as compared with the 0 minute sample was calculated, and the metabolic stability of the compound was evaluated.
In general terms: Liver microsomes are vesicles of endoplasmic reticulum, rich in cytochrome P450 enzymes.

Series [2] is described as follows: Metabolic stability test in liver microsomes (mouse). The following applies: percentage of remaining compound after incubation for 30 minutes vs 0 minute; 1 μM compound; 0.5 mg/mL liver microsomes; 37° C. It is filed as in vitro ADME. How it is done: as §1, §2, §3, §4, §5, §6

SMILES strings stand for the structures.

In general, IC50 refers to the concentration that inhibits the measured activity by half. As to `C[C@H](Nc1nc(NC2CC(F)(F)C2)nc(C2=C(F)C(O)C(F)(F)CC2)n1)C(F)(F)F` (mixture of isomers) [Compound 239], the figures for the IC50 at IDH2-R140Q and against IDH1-R132H were 46 nM and 344 nM, respectively. For the same compound, the “Rat liver microsome stability” value in series [1] stood at 93.0%. Also, in series [2], the “Mouse liver microsome stability” value stood at 91.8%.

For `C[C@@H](Nc1nc(NC2CCC(F)(F)C2)nc(C2=CC(O)CCC2)n1)C(F)(F)F` (mixture of isomers) [Compound 177], the results for the concentration for half-maximal inhibition (IC50) on IDH2-R140Q and against IDH1-R132H were 46 nM and 94 nM, respectively. For the same compound, in series [1], the “Rat liver microsome stability” value is reported as 45.9%. In addition, in series [2], the “Mouse liver microsome stability” value stood at 31.0%.

For the compound `C[C@@H](Nc1nc(N[C@H](C)C(F)(F)F)nc(C2=C(F)C(O)C(F)(F)CC2)n1)C(F)(F)F` (single isomer, unassigned) [Compound 197], the figures for the IC50 on IDH2-R140Q and against IDH1-R132H were 41 nM and 120 nM, respectively. Further, in series [1], the “Rat liver microsome stability” value is recorded as 99.5%. Also, in series [2], the “Mouse liver microsome stability” value came to 98.4%.

Consider `C[C@@H](Nc1nc(N[C@H](C)C(F)(F)F)nc(C2=C(F)C(O)C(F)(F)CC2)n1)C(F)(F)F` (mixture of isomers) [Compound 196], for which the concentration for half-maximal inhibition (IC50) at IDH2-R140Q stood at 94 nM; at IDH1-R132H, 210 nM. Further, in series [1], the “Rat liver microsome stability” value was found to be 100.0%. Also, the “Mouse liver microsome stability” value in series [2] was determined as 95.2%.

For `C[C@@H](Nc1nc(N[C@@H]2CCC(F)(F)C2)nc(C2=C(F)C(O)C(F)(F)CC2)n1)C(F)(F)F` (mixture of isomers) [Compound 235], the IC50 is 130 nM at IDH2-R140Q and 246 nM on IDH1-R132H. The “Rat liver microsome stability” value in series [1] stood at 89.0%. The “Mouse liver microsome stability” value in series [2] amounted to 75.5%.

As for `C[C@@H](Nc1nc(N[C@H](C)C(F)(F)F)nc(C2=C(F)C(O)C(F)CC2)n1)C(F)(F)F` (single isomer, unassigned) [Compound 98], the figures for the IC50 on IDH2-R140Q and on IDH1-R132H were 344 nM and 254 nM, respectively. The “Rat liver microsome stability” value in series [1] turned out to be 99.2%. The “Mouse liver microsome stability” value in series [2] amounted to 83.7%.

As to `OC1CCCC(c2nc(NC3CC(F)(F)C3)nc(NC3CC(F)(F)C3)n2)=C1F` (stereo not shown) [Compound 5], the half-maximal inhibitory concentration (IC50) on IDH2-R140Q was determined as 93 nM; on IDH1-R132H, 869 nM. Further, in series [1], the “Rat liver microsome stability” value came to 76.8%. For the same compound, the “Mouse liver microsome stability” value in series [2] came out at 58.6%.

For the compound `[2H]C1([2H])CCC(c2nc(NC3CC(F)(F)C3)nc(N[C@@H](C)C(F)(F)F)n2)=C(F)C1O` (stereo partly shown) [Compound 84], the IC50 is 48 nM on IDH2-R140Q and 268 nM on IDH1-R132H. The “Rat liver microsome stability” value in series [1] is 67.8%. Also, the “Mouse liver microsome stability” value in series [2] was determined as 78.9%.

For `C[C@@H](Nc1nc(N[C@H](C)C(F)(F)F)nc(C2=C(F)C(O)CCC2)n1)C(F)(F)F` (mixture of isomers) [Compound 2], the IC50 on IDH2-R140Q was 137 nM; against IDH1-R132H, 365 nM. In series [1], the “Rat liver microsome stability” value was 99.0%. Further, in series [2], the “Mouse liver microsome stability” value turned out to be 83.8%.

With `OC1C(F)=C(c2nc(NC3CC(F)(F)C3)nc(NC3CC(F)(F)C3)n2)CCC1F` (single isomer, unassigned) [Compound 201], the IC50 was 45 nM on IDH2-R140Q and 109 nM against IDH1-R132H. In addition, the “Rat liver microsome stability” value in series [1] stood at 91.6%. For the same compound, in series [2], the “Mouse liver microsome stability” value turned out to be 79.3%.

As for `C[C@@H](Nc1nc(NC2CC(F)(F)C2)nc(C2=C(F)C(O)C(F)(F)CC2)n1)C(F)(F)F` (stereo partly drawn) [Compound 259, 3-(4-((3,3-Difluorocyclobutyl)amino)-6-(((R)-1,1,1-trifluoropropan-2-yl)amino)-1,3,5-triazin-2-yl)-2,6,6-trifluorocyclohex-2-en-1-ol], the IC50 stood at 57 nM at IDH2-R140Q and 213 nM against IDH1-R132H. Further, in series [1], the “Rat liver microsome stability” value was found to be 95.1%. Further, the “Mouse liver microsome stability” value in series [2] is 86.9%.

With `C[C@@H](Nc1nc(NC2CCC(F)(F)C2)nc(C2=C(F)C(O)CCC2)n1)C(F)(F)F` (mixture of isomers) [Compound 6], the 50% inhibitory concentration (IC50) came to 115 nM on IDH2-R140Q and 670 nM against IDH1-R132H. The “Rat liver microsome stability” value in series [1] turned out to be 70.0%. Moreover, the “Mouse liver microsome stability” value in series [2] came out at 76.3%.

With `OC1C(F)=C(c2nc(NC3CC(F)(F)C3)nc(NC3CC(F)(F)C3)n2)CCC1F` (single isomer, unassigned) [Compound 202], the concentration for half-maximal inhibition (IC50) at IDH2-R140Q turned out to be 383 nM; at IDH1-R132H, 1100 nM. Besides, the “Rat liver microsome stability” value in series [1] worked out at 94.2%. In addition, in series [2], the “Mouse liver microsome stability” value was 96.4%.

In the case of `CC(Nc1nc(NC2CC(F)(F)C2)nc(C2=C(F)C(O)CCC2)n1)C(F)(F)F` (racemic) [Compound 4], the half-inhibitory concentration (IC50) at IDH2-R140Q is 80 nM; against IDH1-R132H, 750 nM. Also, the “Rat liver microsome stability” value in series [1] was found to be 62.9%. Further, in series [2], the “Mouse liver microsome stability” value came out at 82.1%.

On to `CC(C)Nc1nc(N[C@H](C)C(F)(F)F)nc(C2=C(F)C(O)C(F)(F)CC2)n1` (stereo partly drawn) [Compound 94, 2,6,6-Trifluoro-3-(4-(isopropylamino)-6-(((R)-1,1,1-trifluoropropan-2-yl)amino)-1,3,5-triazin-2-yl)cyclohex-2-en-1-ol], for which the results for the IC50 at IDH2-R140Q and against IDH1-R132H were 131 nM and 1140 nM, respectively. Moreover, the “Rat liver microsome stability” value in series [1] amounted to 82.6%. Also, the “Mouse liver microsome stability” value in series [2] was 65.4%.

With `C[C@H](Nc1nc(N[C@H](C)C(F)(F)F)nc(C2=C(F)C(O)CCC2)n1)C(F)(F)F` (mixture of isomers) [Compound 11], the IC50 at IDH2-R140Q came out at 284 nM; on IDH1-R132H, 1020 nM. Further, the “Rat liver microsome stability” value in series [1] came out at 87.6%. Also, the “Mouse liver microsome stability” value in series [2] is given as 80.3%.

Regarding `[2H]C1(O)CCCC(c2nc(N[C@H](C)C(F)(F)F)nc(N[C@H](C)C(F)(F)F)n2)=C1F` (mixture of isomers) [Compound 18], the figures for the half-inhibitory concentration (IC50) on IDH2-R140Q and against IDH1-R132H were 110 nM and 219 nM, respectively. For the same compound, the “Rat liver microsome stability” value in series [1] is 91.5%. The “Mouse liver microsome stability” value in series [2] was 82.7%.

On to `C[C@@H](Nc1nc(NC2CCC2)nc(C2=C(F)C(O)CCC2)n1)C(F)(F)F` (mixture of isomers) [Compound 7], for which the IC50 at IDH2-R140Q came to 87 nM; at IDH1-R132H, 1500 nM. For the same compound, the “Rat liver microsome stability” value in series [1] came out at 50.3%. Besides, the “Mouse liver microsome stability” value in series [2] came out at 49.8%.

For the compound `C[C@@H](Nc1nc(NC2CC(F)(F)C2)nc(C2=C(F)C(O)C(F)CC2)n1)C(F)(F)F` (single isomer, unassigned) [Compound 227], the half-maximal inhibitory concentration (IC50) on IDH2-R140Q came to 48 nM; against IDH1-R132H, 81 nM. The “Rat liver microsome stability” value in series [1] turned out to be 88.8%. The “Mouse liver microsome stability” value in series [2] is reported as 81.4%.

(Values after US12234211B2, “Cycloolefin substituted heteroaromatic compounds and their use” (HUTCHISON MEDIPHARMA LIMITED, priority 2017, dated 2025).)
